The record followed here is patent US20020086895A1, “Methods of treating fungal infections” (priority 1985, published 2002).

As usually defined, the MIC is the least concentration at which growth counts as inhibited. The term IC50 denotes the midpoint of a concentration-inhibition curve. Higher therefore signals weaker potency.

In experiment [1] the test system is C. albicans. As to the kind of experiment: Antifungal screen of matrix-synthesis aurones in 96-well plates, C. albicans. The class given is cell-based, Candida albicans. Conditions: @12.5 μg/ml. The procedure:
(§1) Thirty-eight 96-well plates were prepared with the above samples and tested against both C. albicans and A. fumigatus at either 8 μg/ml or 12.5 μg/ml. Plates with high activity were retested at the same concentration to confirm activity.
(§2) These compounds have formulae where W′ is OH, V is 3′,4′-(1,1-dimethylpropyloxy) to form a dihydropyran series, and X is selected from 3,4-dimethoxyphenyl, 4-t-butylphenyl, 2(prop-2-enyloxy)phenyl, 3-phenoxyphenyl, 3-ethoxy-4-hydroxyphenyl, 6-cyclohexenyl, and norborn-4-yl.

In a further experiment the test system is A. fumigatus. The experiment is described as follows: Antifungal screen of matrix-synthesis aurones in 96-well plates, A. fumigatus. The format is cell-based, Aspergillus fumigatus. As to conditions: @12.5 μg/ml. The procedure:
as §1, §2

The subject of experiment [2] is Staphylococcus aureus KLE820. As to the kind of experiment: Activity of selected aurones against Staphylococcus aureus KLE820. The class given is cell-based. Conditions: read-out: % Inhibition of growth at 10 ug/ml. From the text: Compounds described herein also have activity against bacteria.
Experiment [3] deals with Candida albicans (strain ATCC #90028). The experiment is described as follows: Inhibition of Candida spp. culture (XTT). The format is cell-based. As to conditions: for C. albicans minimum inhibitory concentration (MIC) compared with reported ranges: assay validation; for MIC: Candida albicans, ATCC90028, C. albicans, XTT, 22 hours at 35° C., read-out: antifungal MIC. The procedure:
(§3) Candida albicans (strain ATCC #90028), Candida krusei (strain ATCC #90030), and Torulopsis (Candida) glabrata (strain ATCC #6258) were subcultured from cryopreserved stocks onto sabourand dextrose agar plates. Blastoconidia were suspended into RPMI-MOPS (media) and inoculated (500 cfu/well) into 96-well plates containing test compounds in a final volume of 100 μL/well. After 22 hours at 35° C., 25 μL of XTT (2,3-bis(2-methoxy-4-nitro-5-sulfophenyl)-5-[(phenylamino)carbonyl]-2H-tetrazolium hydroxide), (100 μg/mL) with PMS (phenazine methyl sulfate, 5 μM) were added to each well, followed by 2 hours of shaking. Growth was assessed spectrophotometrically by measuring the appearance of soluble formazan stain at 450 nm using an Emax microplate reader.
For orientation: Tetrazolium assays rely on reduction of a dye to a coloured formazan, in cell work by metabolically active cells.

Experiment [4] has as its system nine isolates (Aspergillus and Candida). The experiment is described as follows: Standard controls of the antifungal assays of Example 12. The class given is cell-based. The procedure: Test compounds were tested against nine isolates in an eight-point dose response assay ranging from 50 μg/ml to 0.39 μg/ml. Aspergillus MIC's (minimum inhibitory concentrations) were scored visually after 48 and 72 hours at 37° C. […] Amphotericin B (2.5 μg/ml) and 5-flucytosine (2.0 μg ml) were standard controls for each antifungal assay. […] The results are shown below in Table 4, MIC values in μg/ml after 72 hours. HFF toxicity was analyzed after a 24 hour incubation at 37° C. (5% CO2). MTS/PMS was added, and the sample absorbance was read at 450 nm.

For experiment [5], the system named is Torulopsis (Candida) glabrata (strain ATCC #6258). As to the kind of experiment: Inhibition of Candida spp. culture (XTT). The class given is cell-based. Conditions: T. (C.) glabrata, 22 hours at 35° C., read-out: antifungal MIC. The procedure:
as §3

The subject of experiment [6] is Candida krusei (strain ATCC #90030). The experiment is described as follows: Inhibition of Candida spp. culture (XTT). The class given is cell-based. As to conditions: Pichia kudriavzevii, ATCC90030, C. krusei, 22 hours at 35° C., read-out: antifungal MIC. As for the experimental part:
as §3

Experiment [7] addresses T1, chitin synthase III (CS III) (Candida albicans, UniProt P30573).
T1 construct: endogenous in cells
As to the kind of experiment: Inhibition of chitin synthase, CS III only. The class given is biochemical, C. albicans. As for the experimental part: Plasma membrane was purified from C. albicans (ATCC #90028) according to Orlean, J. Biol. Chem. 262:5732-5-1987. To minimize proteolysis during plasma membrane preparation, 1% fetal calf serum was incorporated into the homogenization buffer. Plasma membrane was activated by trypsin (125 μg/mg protein) in the presence of 1.5 mM UDP-GLcNAc(c) at 25° C. for 5 minutes. The reaction was stopped by the addition of soybean trypsin inhibitor. The activated membranes (0.125 mg membrane protein/mL) were then assayed in a total of 50 μL reaction mixture containing 50 mM Tris-HCl (pH 8.0) 3 mM CoCl2, 40 mM GlcNAc, 4 mM ^14C-UDP-GlcNAc (specific: 0.25 mCi/mmol) (New England Nuclear Boston, Mass.) and plant extract (100 μg/mL). The incubation was carried out at 37° C. for 1 hour and terminated with the addition of trichloroacetic acid (10%). The reaction mixture was transferred to a pre-wetted glass fiber filter. The filter was washed with 4×200 μL of a 7:3 solution of 95% EtOH and 1 M acetic acid. The filter was dried under a heat lamp and counted in a Microbeta counter (Wallac, Gaithersburg, Md.) after the addition of 25 μL OPTIPHASE SUPERMIX™ (Wallac) scintillation fluid. Nikkomycin Z and Polyoxin D were used as positive controls (Calbiochem, San Diego, Calif.). Vehicle control was carried out with the same amount of DMSO (2%). […]

The test system of experiment [8] is Candida albicans strain #64, sensitive to fluconazole. The experiment is described as follows: Fluconazole-sensitive candidiasis in mice. The class given is in vivo. The procedure:
Immunocompetent mice (ICR, Sprague-Dawley, Indianapolis, Ind.) were infected with a pathogenic strain (strain #64) of Candida albicans which is sensitive to fluconazole. […] […] […] In addition, the organ fungal load (in CFU) was measured at day 30.

Experiment [9] concerns C. albicans UTR-14, fluconazole-resistant clinical isolate. As to the kind of experiment: Fluconazole-resistant candidiasis in mice. The format is in vivo.
Experiment [10] deals with C. albicans. The experiment is described as follows: Inhibition of C. albicans with drug combinations. The format is cell-based, Candida albicans. As for the experimental part: as §3
Formula (V) was tested in combination with known antifungal agents amphotericin B and fluconazole. A 10 mg/ml stock solution of formula (V) was diluted in 100% DMSO and stored at −80° C. Fluconazole and Amphotericin B were similarly prepared and stored as a 8 mg/ml stock solution, and a 1.25 mg/ml stock solution, respectively. Each known antifungal agent was added (2 μl/well), then 2 μl/well of the formula (V) solution was added to the designated wells. The remainder of the experiment follows Example 21.

Experiment [11] relates to chitin synthase II (CS II). The experiment is described as follows: Inhibition of chitin synthase, CS II only. The class given is biochemical, C. albicans. The procedure: Plasma membrane was purified from C. albicans (ATCC #90028) according to Orlean, J. Biol. Chem. 262:5732-5-1987. To minimize proteolysis during plasma membrane preparation, 1% fetal calf serum was incorporated into the homogenization buffer. Plasma membrane was activated by trypsin (125 μg/mg protein) in the presence of 1.5 mM UDP-GLcNAc(c) at 25° C. for 5 minutes. The reaction was stopped by the addition of soybean trypsin inhibitor. The activated membranes (0.125 mg membrane protein/mL) were […], 40 mM GlcNAc, 4 mM ^14C-UDP-GlcNAc (specific: 0.25 mCi/mmol) (New England Nuclear Boston, Mass.) and plant extract (100 μg/mL). The incubation was carried out at 37° C. for 1 hour and terminated with the addition of trichloroacetic acid (10%). The reaction mixture was transferred to a pre-wetted glass fiber filter. The filter was washed with 4×200 μL of a 7:3 solution of 95% EtOH and 1 M acetic acid. The filter was dried under a heat lamp and counted in a Microbeta counter (Wallac, Gaithersburg, Md.) after the addition of 25 μL OPTIPHASE SUPERMIX™ (Wallac) scintillation fluid. Nikkomycin Z and Polyoxin D were used as positive controls (Calbiochem, San Diego, Calif.). Vehicle control was carried out with the same amount of DMSO (2%).
The SOP assay described above was modified to pH 7.5 and 5 mM MgCl2 (instead of CoCl2). […]

T1 sequence (P30573 whole entry): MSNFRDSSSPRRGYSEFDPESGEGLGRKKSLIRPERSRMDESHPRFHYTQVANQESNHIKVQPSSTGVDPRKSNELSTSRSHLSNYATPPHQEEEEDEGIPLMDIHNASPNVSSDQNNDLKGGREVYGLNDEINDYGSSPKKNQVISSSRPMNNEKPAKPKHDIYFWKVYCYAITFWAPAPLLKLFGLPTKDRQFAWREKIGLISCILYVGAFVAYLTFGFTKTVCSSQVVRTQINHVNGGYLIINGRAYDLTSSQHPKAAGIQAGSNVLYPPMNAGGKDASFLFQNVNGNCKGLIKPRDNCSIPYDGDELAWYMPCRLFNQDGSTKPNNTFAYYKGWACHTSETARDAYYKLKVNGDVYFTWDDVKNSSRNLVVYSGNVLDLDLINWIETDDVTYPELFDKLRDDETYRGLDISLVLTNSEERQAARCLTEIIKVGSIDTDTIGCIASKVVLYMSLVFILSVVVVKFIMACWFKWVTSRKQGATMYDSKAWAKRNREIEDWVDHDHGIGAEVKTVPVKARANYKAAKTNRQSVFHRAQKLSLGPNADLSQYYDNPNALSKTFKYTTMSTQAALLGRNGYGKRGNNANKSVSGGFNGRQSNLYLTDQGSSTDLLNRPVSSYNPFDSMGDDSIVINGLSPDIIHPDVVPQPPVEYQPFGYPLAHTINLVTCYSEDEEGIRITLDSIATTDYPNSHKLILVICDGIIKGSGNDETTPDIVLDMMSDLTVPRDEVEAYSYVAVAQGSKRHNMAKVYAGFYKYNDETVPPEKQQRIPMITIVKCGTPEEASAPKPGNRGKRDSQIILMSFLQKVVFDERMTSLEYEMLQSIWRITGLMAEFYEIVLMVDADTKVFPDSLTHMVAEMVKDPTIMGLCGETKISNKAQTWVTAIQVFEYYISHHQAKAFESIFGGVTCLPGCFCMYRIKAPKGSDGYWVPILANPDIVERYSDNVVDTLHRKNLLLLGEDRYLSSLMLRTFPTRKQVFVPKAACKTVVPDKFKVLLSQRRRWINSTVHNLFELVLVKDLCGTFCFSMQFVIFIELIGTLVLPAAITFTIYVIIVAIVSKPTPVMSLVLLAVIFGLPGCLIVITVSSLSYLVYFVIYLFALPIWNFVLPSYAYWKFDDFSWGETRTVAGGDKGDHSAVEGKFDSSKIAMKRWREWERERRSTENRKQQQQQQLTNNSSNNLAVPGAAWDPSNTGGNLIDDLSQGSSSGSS

In the experiment on C. albicans [1], `Cc1cc(C)c(C=C2Oc3cc(O)cc(O)c3C2=O)c(C)c1` yielded a CA percent inhibition of 6%. Besides, the AF percent inhibition in the experiment with A. fumigatus is on record as 48%.
For `Cc1cc(C)cc(C=C2Oc3cc(O)cc(O)c3C2=O)c1`, the CA percent inhibition result with C. albicans [1] is “CA 4% AF”. In addition, the AF percent inhibition result in the experiment on A. fumigatus was “#17% @12.5 μg/ml”.
For `COc1ccc(/C=C2\Oc3cc(O)c(C/C=C/c4ccccc4)c(O)c3C2=O)cc1`, in experiment [2], the inhibition at 10 µg/mL was determined as 83%.
The same measure, in the same setting: next, `O=C1/C(=C/c2cc([N+](=O)[O-])ccc2O)Oc2cc(O)c(Cc3ccccc3)c(O)c21`: 100%; `O=C1/C(=C/c2c(Br)cc(Br)c(O)c2Br)Oc2cc(O)c(Cc3ccccc3)c(O)c21`: 100%; `O=C1/C(=C/c2cc(Cl)cc(Cl)c2O)Oc2cc(O)c(Cc3ccccc3)c(O)c21`: 100%.
Consider `CCCCCOc1ccc(/C=C2\Oc3cc(O)cc(O)c3C2=O)cc1`, for which the inhibition at 10 µg/mL in [2] amounted to 98.6%.
Still for that read-out and setting: next, `C=CCc1c(O)cc2c(c1O)C(=O)/C(=C/c1ccc(-c3ccccc3C(F)(F)F)o1)O2`: 76.5%.
Regarding `Nc1nc(=O)[nH]cc1F` [5-flucytosine], the “C. albicans minimum inhibitory concentration (MIC) compared with reported ranges” value in experiment [3] is “within reported ranges”. Besides, in experiment [4] (2.0 μg ml), the “inhibition by standard control” value is “total inhibition”.
`C[C@@H]1[C@H](O)[C@@H](C)/C=C/C=C/C=C/C=C/C=C/C=C/C=C/[C@H](O[C@@H]2O[C@H](C)[C@@H](O)[C@H](N)[C@@H]2O)C[C@@H]2O[C@](O)(C[C@@H](O)C[C@@H](O)[C@H](O)CC[C@@H](O)C[C@@H](O)CC(=O)O[C@H]1C)C[C@H](O)[C@H]2C(=O)O` [Amphotericin B]: the “C. albicans minimum inhibitory concentration (MIC) compared with reported ranges” value in experiment [3] is “within reported ranges”. Further, in experiment [4] (2.5 μg/ml), the “inhibition by standard control” value was “total inhibition”.
On to `CC(C)=CCc1c(O)cc2c(c1O)C(=O)C(=Cc1ccc(O)c(O)c1)O2` [Formula (V), 5-prenylaureusidin], for which the results for the MIC in experiment [5], in [6] and in experiment [3] were 6.25 µg/mL, 6.25 µg/mL and 12.5 µg/mL, respectively. Also, the IC50 was 107 µM in [7] and 223 µM in [11]. The “percent survival after 30 days” value is on record as “about 70%” in [8] (20 mg per kg body weight i.p., once a day for 10 days) and “about 60%” in experiment [8] (40 mg per kg body weight p.o., once a day for 10 days). In experiment [8] (day 30), the “fungal load reduction in each organ” value was “over 99%”. The “percent survival after 20 days” value in [9] (40 mg per kg body weight p.o.) is “about 80%”. In addition, the “combination effect with Amphotericin B” value with C. albicans [10] (in combination with Amphotericin B) was “apparent synergy”. Further, the “combination effect with fluconazole” value with C. albicans [10] (in combination with fluconazole) was “apparent additivity”.
For `CC(C)=CCc1c(O)cc2c(c1O)C(=O)/C(=C\c1cc(O)c(O)cc1-c1c(O)cc3c(c1O)C(=O)/C(=C\c1ccc(O)c(O)c1)O3)O2` [Formula (VI)], the MIC in [5] was determined as 1.74 µg/mL; in experiment [6], 7.48 µg/mL; in experiment [3], 25 µg/mL.
For the compound `C[C@@H]([C@H](N)C(=O)N[C@H](C(=O)O)[C@H]1O[C@@H](n2ccc(=O)[nH]c2=O)[C@H](O)[C@@H]1O)[C@H](O)c1ccc(O)cn1` [Nikkomycin Z, reference compound], the “C. albicans minimum inhibitory concentration (MIC) compared with reported ranges” value in experiment [3] is “within reported ranges”. Further, the “CS II remaining” value in experiment [11] (10 μM Nikkomycin Z, pH 7.5, 5 mM MgCl2) came to 75%.
`CC(C)=CCc1c(O)cc2c(c1O)C(=O)C(=Cc1ccc(O)c(O)c1)O2` [drawing 36+drawing 32] gave a CA percent inhibition in the experiment on C. albicans [1] of 92%. For the same compound, the AF percent inhibition in the experiment on A. fumigatus stood at 0%.
`OC(Cn1cncn1)(Cn1cncn1)c1ccc(F)cc1F` [fluconazole, reference compound]: in [3], the “C. albicans minimum inhibitory concentration (MIC) compared with reported ranges” value was “within reported ranges”. Besides, the “percent survival after 30 days” value in experiment [8] (40 mg per kg body weight, twice a day) is on record as “about 30%”. In addition, the “percent survival after 20 days” value in [9] (40 mg per kg body weight p.o. (twice daily)) was 0%.
On to `NC(=O)OC[C@H](O)[C@@H](O)[C@H](N)C(=O)N[C@H](C(=O)O)[C@H]1O[C@@H](n2cc(C(=O)O)c(=O)[nH]c2=O)[C@H](O)[C@@H]1O` [polyoxin D], for which the “C. albicans minimum inhibitory concentration (MIC) compared with reported ranges” value in experiment [3] is on record as “within reported ranges”.
